The source of these data is patent US11602534B2, “Pyrimidine derivative kinase inhibitors” (HEFEI INSTITUTES OF PHYSICAL SCIENCE, CHINESE ACADEMY OF …, priority 2017, dated 2023).

For experiment [1], the system named is BaF3. In words: Proliferation of BaF3 cells, CCK8 cell viability assay. It counts as cell-based. The conditions noted are these: Mus musculus, 72 hours. The source says:
(§1) In this example the following cells were used: […] (purchased from ATCC), mouse P210-BaF3 (stably expressing BCR-ABL mutant activated kinase), mouse P210/T315I-BaF3 (stably expressing BCR-ABL/T315I mutant activated kinase), mouse FLT3-ITD-BaF3 (stably expressing FLT3/ITD mutant activated kinase), mouse TEL-FLT3-BaF3 (stably expressing FLT3 kinase), mouse TEL-cKIT-BaF3 (stably expressing cKIT kinase), mouse BaF3-tel/T670I-cKit (stably expressing cKIT/T670I mutant activated kinase), mouse Tel-VEGFR2-BaF3 (stably expressing VEGFR2 kinase), mouse Tel-PDGFRα-BaF3 (stably expressing PDGFRα kinase), mouse Tel-PDGFRβ-BaF3 (stably expressing PDGFRβ kinase), mouse Tel-RET-BaF3 (stably expressing RET kinase). The above cell lines were all constructed by our laboratory according to the following method: the kinase region sequences of human P210, P210/T315I, FLT3/ITD, FLT3, cKIT, cKIT/T670I, VEGFR2, PDGFRα, PDGFRβ, RET were respectively amplified by PCR, and inserted into MSCV-Puro vectors having N-terminal TEL or TPR fragments (Clontech). The vectors were stably transfected into mouse BaF3 cells by means of retrovirus, and the growth factor IL-3 were removed, eventually obtaining cell lines that depend on transferred protein P210, P210/T315I, FLT3/ITD, FLT3, cKIT, cKIT/T670I, VEGFR2, PDGFRα, PDGFRβ, or RET.
(§2) GI50 (unit: μM) was calculated by quantifying the number of living cells based on quantitative measurement of reductive dehydrogenase in living cells with CCK8 cell viability assay kit (Bestbio, China).
(In general: Tetrazolium assays rely on reduction of a dye to a coloured formazan, in cell work by metabolically active cells.)

The test system of experiment [2] is P210-BaF3. Kind of experiment: Proliferation of P210-BaF3 cells, CCK8 cell viability assay. It counts as cell-based. The conditions noted are these: Mus musculus, 72 hours, stably expressing BCR-ABL mutant activated kinase.
Text: as §1, §2

For experiment [3], the system named is P210/T315I-BaF3. Kind of experiment: Proliferation of P210/T315I-BaF3 cells, CCK8 cell viability assay. Format: cell-based. The conditions noted are these: Mus musculus, 72 hours, stably expressing BCR-ABL/T315I.
Text: as §1, §2

In experiment [4] the test system is Tel-cKit-BaF3. In words: Proliferation of Tel-cKit-BaF3 cells, CCK8 cell viability assay. Format: cell-based, mouse. The conditions noted are these: Mus musculus; 72 hours, CCK8; stably expressing cKIT kinase.
Text: as §1, §2

For experiment [5], the system named is Tel-cKit/T670I-BaF3. In words: Proliferation of Tel-cKit/T670I-BaF3 cells, CCK8 cell viability assay. Format: cell-based. The conditions noted are these: Mus musculus, 72 hours, stably expressing cKIT/T670I.
Text: as §1, §2

Experiment [6] has as its system Tel-FLT3-BaF3. In words: Proliferation of Tel-FLT3-BaF3 cells, CCK8 cell viability assay. The conditions noted are these: Mus musculus, 72 hours, stably expressing FLT3 kinase. Format: cell-based.
Text: as §1, §2

The test system of experiment [7] is FLT3-ITD-BaF3. In words: Proliferation of FLT3-ITD-BaF3 cells, CCK8 cell viability assay. It counts as cell-based. The conditions noted are these: Mus musculus, 72 hours, stably expressing FLT3/ITD.
Text: as §1, §2

For experiment [8], the system named is TEL-PDGFRα-BaF3. Kind of experiment: Proliferation of TEL-PDGFRα-BaF3 cells, CCK8 cell viability assay. It counts as cell-based. The conditions noted are these: Mus musculus, 72 hours, stably expressing PDGFRα kinase.
Text: as §1, §2

Experiment [9] has as its system TEL-PDGFRβ-BaF3. In words: Proliferation of TEL-PDGFRβ-BaF3 cells, CCK8 cell viability assay. It counts as cell-based. The conditions noted are these: Mus musculus, 72 hours, stably expressing PDGFRβ kinase.
Text: as §1, §2

Experiment [10] relates to TEL-VEGFR2-BaF3. Kind of experiment: Proliferation of TEL-VEGFR2-BaF3 cells, CCK8 cell viability assay. Format: cell-based. The conditions noted are these: Mus musculus, 72 hours, stably expressing VEGFR2 kinase.
Text: as §1, §2

Regarding `CC(C)(C)C(=O)Nc1cc(Oc2ccc(NC(=O)Cc3ccc(C(F)(F)F)cc3)cc2)ncn1` [Example 52, 2,2-dimethyl-N-(6-{4-[2-(4-trifluoromethyl-phenyl)-acetylamino]-phenoxy}-pyrimidin-4-yl)-propanamide], the 50% growth inhibitory concentration (GI50) in experiment [1] was over 10000 nM; in [2], over 10000 nM; in [3], over 10000 nM; in experiment [4], 2260 nM; in experiment [5] it was 5680 nM; in experiment [6], 3000 nM. The concentration for 50% growth inhibition (GI50) in experiment [7] came to 374 nM; in [8], 33 nM; in experiment [9], 92 nM; in experiment [10], 3420 nM.
Regarding `CC(=O)Nc1cc(Oc2ccc(NC(=O)Cc3ccc(C)c(C)c3)cc2)ncn1` [Example 60, N-[4-(6-acetylamino-pyrimidin-4-yloxy)-phenyl]-2-(3,4-dimethyl-phenyl)-acetamide], the GI50 in experiment [1] was over 10000 nM; in experiment [2], over 10000 nM; in [3] it was over 10000 nM; in experiment [4], 917 nM; in [5], 1880 nM; in experiment [6] it was 195 nM. Moreover, the GI50 stood at 14 nM in [7], 11 nM in experiment [8], 26 nM in experiment [9] and 433 nM in [10].
For the compound `COc1ccc(CC(=O)Nc2ccc(Oc3cc(NC(C)=O)ncn3)cc2)cc1OC` [Example 61, N-[4-(6-acetylamino-pyrimidin-4-yloxy)-phenyl]-2-(3,4-dimethoxy-phenyl)-acetamide], the GI50 was 5710 nM in experiment [1]; 5610 nM in experiment [2]; 9770 nM in experiment [3]; 4890 nM in experiment [4]; over 10000 nM in experiment [5]; 1390 nM in experiment [6]. Besides, the GI50 was 63 nM in [7], 74 nM in [8], 233 nM in [9] and 1780 nM in experiment [10].
With `COc1cc(CC(=O)Nc2ccc(Oc3cc(NC(C)=O)ncn3)cc2)cc(OC)c1OC` [Example 62, N-[4-(6-acetylamino-pyrimidin-4-yloxy)-phenyl]-2-(3,4,5-trimethoxy-phenyl)-acetamide], the 50% growth inhibitory concentration (GI50) is over 10000 nM in [1]; over 10000 nM in experiment [2]; over 10000 nM in [3]; 810 nM in experiment [4]; 6580 nM in experiment [5]; 390 nM in [6]. In addition, the GI50 in experiment [7] came to 50 nM; in experiment [8], 45 nM; in experiment [9], 231 nM; in experiment [10], 1180 nM.
For `CC(=O)Nc1cc(Oc2ccc(NC(=O)C(O)c3ccccc3F)cc2)ncn1` (stereo not drawn) [Example 63, N-[4-(6-acetylamino-pyrimidin-4-yloxy)-phenyl]-2-(2-fluoro-phenyl)-2-hydroxy-acetamide], the GI50 was over 10000 nM in experiment [1]; over 10000 nM in experiment [2]; over 10000 nM in experiment [3]; over 10000 nM in experiment [4]; over 10000 nM in experiment [5]; 4680 nM in experiment [6]. Moreover, the GI50 in experiment [7] was determined as 325 nM; in experiment [8], 476 nM; in experiment [9] it was 5750 nM; in [10] it was 3430 nM.
As to `CC(=O)Nc1cc(Oc2ccc(NC(=O)Cc3ccc(C(C)(C)C)cc3)cc2)ncn1` [Example 65, N-[4-(6-acetylamino-pyrimidin-4-yloxy)-phenyl]-2-(4-tert-butyl-phenyl)-acetamide], the GI50 in [1] was over 10000 nM; in experiment [2], over 10000 nM; in experiment [3] it was over 10000 nM; in experiment [4] it was 376 nM; in experiment [5], 1070 nM; in experiment [6] it was 612 nM. For the same compound, the concentration for 50% growth inhibition (GI50) stood at 24 nM in experiment [7], 12 nM in [8], 84 nM in experiment [9] and 277 nM in [10].
Consider `CC(=O)Nc1cc(Sc2ccc(NC(=O)Cc3ccccc3C(F)(F)F)cc2)ncn1` [Example 67, N-[4-(6-acetylamino-pyrimidin-4-ylsulfanyl)-phenyl]-2-(2-trifluoromethyl-phenyl)-acetamide], for which the GI50 in [1] was over 10000 nM; in experiment [2], 8080 nM; in [3], 9790 nM; in experiment [4], 6170 nM; in [5] it was over 10000 nM; in experiment [6] it was 1470 nM. The GI50 came out at 291 nM in [7], 14 nM in experiment [8], 312 nM in experiment [9] and 7820 nM in experiment [10].
In the case of `Cc1ccc(NC(=O)Cc2ccc(Oc3cc(NCCN)ncn3)cc2)cc1C(F)(F)F` [Example 137, 2-(4-((6-((2-aminoethyl)amino)pyrimidin-4-yl)oxy)phenyl)-N-(4-methyl-3-(trifluoromethyl)phenyl)acetamide], the GI50 was over 10000 nM in experiment [1]; over 10000 nM in [2]; 9930 nM in [3]; 465 nM in [4]; 323 nM in experiment [5]; 40 nM in experiment [6]. The GI50 amounted to 12 nM in experiment [7], 11 nM in [8], 34 nM in [9] and 149 nM in experiment [10].
Turning to `Cc1ccc(NC(=O)Cc2ccc(Nc3cc(NCCN)ncn3)cc2)cc1C(F)(F)F` [Example 138, 2-{4-[6-(2-amino-ethylamino)-pyrimidin-4-ylamino]-phenyl}-N-(4-methyl-3-trifluoromethyl-phenyl)-acetamide], the GI50 was over 10000 nM in [1]; over 10000 nM in experiment [2]; over 10000 nM in experiment [3]; 2600 nM in experiment [4]; 377 nM in experiment [5]; 34 nM in [6]. Moreover, the concentration for 50% growth inhibition (GI50) worked out at 14 nM in [7], 17 nM in experiment [8], 79 nM in experiment [9] and 711 nM in [10].
For the compound `CCCC(=O)Nc1cc(Oc2ccc(NC(=O)Cc3ccccc3C(F)(F)F)cc2)ncn1` [Example 167, N-(6-{4-[2-(2-trifluoromethyl-phenyl)-acetylamino]-phenoxy}-pyrimidin-4-yl)-butyramide], the GI50 was over 10000 nM in [1]; over 10000 nM in experiment [2]; over 10000 nM in experiment [3]; 9840 nM in experiment [4]; 7940 nM in experiment [5]; 513 nM in experiment [6]. Further, the results for the GI50 in experiment [7], in [8] and in [9] were 126 nM, 41 nM and 112 nM, respectively.
`CC(=O)Nc1cc(Oc2ccc(NC(=O)Cc3ccc(F)c(F)c3)cc2)ncn1` [Example 168, N-[4-(6-acetylamino-pyrimidin-4-yloxy)-phenyl]-2-(3,4-difluoro-phenyl)-acetamide]: the 50% growth inhibitory concentration (GI50) in [1] is over 10000 nM; in [2], over 10000 nM; in experiment [3], over 10000 nM; in experiment [4] it was 2690 nM; in [5] it was 4230 nM; in [6] it was 99 nM. The GI50 came to 42 nM in experiment [7], 6 nM in [8] and 33 nM in [9].
For `CC(=O)Nc1cc(Oc2ccc(NC(=O)Cc3cccc(Cl)c3)cc2)ncn1` [Example 169, N-[4-(6-acetylamino-pyrimidin-4-yloxy)-phenyl]-2-(3-chloro-phenyl)-acetamide], the GI50 is over 10000 nM in experiment [1]; over 10000 nM in [2]; over 10000 nM in [3]; 1700 nM in [4]; over 10000 nM in [5]; 105 nM in experiment [6]. For the same compound, the GI50 was 24 nM in experiment [7], 5 nM in experiment [8] and 35 nM in [9].
In the case of `CC(=O)Nc1cc(Oc2ccc(NC(=O)C(C)c3ccc(C)cc3)cc2)ncn1` (stereo not drawn) [Example 170, N-[4-(6-acetylamino-pyrimidin-4-yloxy)-phenyl]-2-(4-methyl-phenyl)-propanamide], the 50% growth inhibitory concentration (GI50) in experiment [1] was over 10000 nM; in experiment [2], over 10000 nM; in experiment [3], over 10000 nM; in [4] it was over 10000 nM; in experiment [5], over 10000 nM; in experiment [6] it was 3160 nM. The GI50 in experiment [7] stood at 1220 nM; in experiment [8], 137 nM; in experiment [9], 925 nM.

Broadly, the GI50 is the concentration that inhibits growth by half. Lower therefore signals more potent growth inhibition.
